What was measured:
[1] = Induction of apoptosis in rat Glial cell transformed with adenovirus 12 E1A incubated for 24 hrs by /Hoechst […] staining based flourescence microscopy; format: functional
[2] = tested on: NCI-H292; assay: Cytotoxicity against human NCI-H292 cells assessed as reduction in cell viability incubated for 4 days by WST-1 assay; format: functional, cell-based; settings: NCI-H292, 96 h
[3] = Growth inhibition of human HBC4 cells by sulforhodamine B assay; format: functional
[4] = Growth inhibition of human BSY1 cells by sulforhodamine B assay; format: functional; settings: BSY-1
[5] = Growth inhibition of human HBC5 cells by sulforhodamine B assay; format: functional
[6] = tested on: MCF7; assay: Growth inhibition of human MCF7 cells by sulforhodamine B assay; format: functional
[7] = Growth inhibition of human […] cells by sulforhodamine B assay; format: functional
[8] = tested on: U-251; assay: Growth inhibition of human U-251 cells by sulforhodamine B assay; format: functional
[9] = tested on: SF-268; assay: Growth inhibition of human SF-268 cells by sulforhodamine B assay; format: functional
[10] = tested on: SF-295; assay: Growth inhibition of human SF-295 cells by sulforhodamine B assay; format: functional
[11] = tested on: SF-539; assay: Growth inhibition of human SF-539 cells by sulforhodamine B assay; format: functional
[12] = tested on: SNB-75; assay: Growth inhibition of human SNB-75 cells by sulforhodamine B assay; format: functional
[13] = tested on: SNB-78; assay: Growth inhibition of human SNB-78 cells by sulforhodamine B assay; format: functional
[14] = tested on: HCC 2998; assay: Growth inhibition of human HCC 2998 cells by sulforhodamine B assay; format: functional
[15] = tested on: KM12; assay: Growth inhibition of human KM12 cells by sulforhodamine B assay; format: functional
[16] = tested on: HT-29; assay: Growth inhibition of human HT-29 cells by sulforhodamine B assay; format: functional
[17] = tested on: HCT-15; assay: Growth inhibition of human HCT-15 cells by sulforhodamine B assay; format: functional
[18] = tested on: HCT-116; assay: Growth inhibition of human HCT-116 cells by sulforhodamine B assay; format: functional
[19] = tested on: NCI-H23; assay: Growth inhibition of human NCI-H23 cells by sulforhodamine B assay; format: functional
[20] = tested on: NCI-H226; assay: Growth inhibition of human NCI-H226 cells by sulforhodamine B assay; format: functional
[21] = tested on: NCI-H522; assay: Growth inhibition of human NCI-H522 cells by sulforhodamine B assay; format: functional
[22] = tested on: NCI-H460; assay: Growth inhibition of human NCI-H460 cells by sulforhodamine B assay; format: functional
[23] = tested on: A549; assay: Growth inhibition of human A549 cells by sulforhodamine B assay; format: functional
[24] = tested on: DMS-273; assay: Growth inhibition of human DMS-273 cells by sulforhodamine B assay; format: functional
[25] = tested on: LOX IMVI; assay: Growth inhibition of human LOX IMVI cells by sulforhodamine B assay; format: functional
[26] = tested on: OVCAR-3; assay: Growth inhibition of human OVCAR-3 cells by sulforhodamine B assay; format: functional
[27] = tested on: OVCAR-4; assay: Growth inhibition of human OVCAR-4 cells by sulforhodamine B assay; format: functional
[28] = tested on: OVCAR-5; assay: Growth inhibition of human OVCAR-5 cells by sulforhodamine B assay; format: functional
[29] = tested on: OVCAR-8; assay: Growth inhibition of human OVCAR-8 cells by sulforhodamine B assay; format: functional
[30] = tested on: SK-OV-3; assay: Growth inhibition of human SK-OV-3 cells by sulforhodamine B assay; format: functional
[31] = tested on: RXF 631; assay: Growth inhibition of human RXF 631 cells by sulforhodamine B assay; format: functional
[32] = tested on: ACHN; assay: Growth inhibition of human ACHN cells by sulforhodamine B assay; format: functional
[33] = tested on: St-4; assay: Growth inhibition of human St-4 cells by sulforhodamine B assay; format: functional
[34] = tested on: MKN-1; assay: Growth inhibition of human MKN-1 cells by sulforhodamine B assay; format: functional
[35] = tested on: MKN-7; assay: Growth inhibition of human MKN-7 cells by sulforhodamine B assay; format: functional
[36] = tested on: MKN-28; assay: Growth inhibition of human MKN-28 cells by sulforhodamine B assay; format: functional
[37] = tested on: MKN-45; assay: Growth inhibition of human MKN-45 cells by sulforhodamine B assay; format: functional
[38] = tested on: MKN-74; assay: Growth inhibition of human MKN-74 cells by sulforhodamine B assay; format: functional
[39] = tested on: DU-145; assay: Growth inhibition of human DU-145 cells by sulforhodamine B assay; format: functional
[40] = tested on: PC-3; assay: Growth inhibition of human PC-3 cells by sulforhodamine B assay; format: functional
[41] = tested on: HeLa S3; assay: Cytotoxicity against human HeLa S3 cells assessed as cell growth inhibition; format: functional, cell-based
[42] = molecular target: Sarcoplasmic/endoplasmic reticulum calcium ATPase 1 (Oryctolagus cuniculus, UniProt P04191); assay: Inhibition of SERCA1a in rabbit Sarcoplasmic reticulum assessed as inhibition constant in presence of [gamma-32P]ATP and calcium ionophore A23187 by coupled enzyme assay; format: subcellular
Chain of Sarcoplasmic/endoplasmic reticulum calcium ATPase 1 (P04191 whole entry): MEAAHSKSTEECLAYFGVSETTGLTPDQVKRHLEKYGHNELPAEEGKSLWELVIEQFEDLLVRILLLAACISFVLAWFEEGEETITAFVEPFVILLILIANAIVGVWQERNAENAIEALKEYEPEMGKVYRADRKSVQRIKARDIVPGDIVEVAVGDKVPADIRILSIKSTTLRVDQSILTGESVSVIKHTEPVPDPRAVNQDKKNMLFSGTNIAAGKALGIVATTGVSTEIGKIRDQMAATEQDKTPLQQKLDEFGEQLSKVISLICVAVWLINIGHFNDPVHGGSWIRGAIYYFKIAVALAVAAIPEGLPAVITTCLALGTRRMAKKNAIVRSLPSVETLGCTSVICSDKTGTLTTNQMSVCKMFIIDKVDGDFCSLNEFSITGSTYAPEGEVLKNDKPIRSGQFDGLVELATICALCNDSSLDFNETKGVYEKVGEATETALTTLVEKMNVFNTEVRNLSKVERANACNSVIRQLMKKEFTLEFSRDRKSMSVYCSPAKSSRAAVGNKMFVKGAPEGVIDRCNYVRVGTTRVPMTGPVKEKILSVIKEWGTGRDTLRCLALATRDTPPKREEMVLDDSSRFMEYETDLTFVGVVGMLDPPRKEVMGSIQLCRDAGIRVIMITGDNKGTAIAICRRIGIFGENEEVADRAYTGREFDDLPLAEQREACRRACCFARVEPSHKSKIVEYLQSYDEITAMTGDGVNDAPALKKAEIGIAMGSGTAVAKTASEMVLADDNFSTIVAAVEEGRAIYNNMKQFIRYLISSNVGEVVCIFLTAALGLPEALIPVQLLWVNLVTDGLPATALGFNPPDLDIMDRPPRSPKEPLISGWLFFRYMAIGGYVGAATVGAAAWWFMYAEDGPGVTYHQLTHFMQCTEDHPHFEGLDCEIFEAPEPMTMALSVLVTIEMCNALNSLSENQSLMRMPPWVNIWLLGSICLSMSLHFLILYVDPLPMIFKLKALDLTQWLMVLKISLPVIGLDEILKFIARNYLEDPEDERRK

[43] = Cytotoxicity against mouse WEHI-231 cells assessed as cell growth inhibition incubated for 144 hrs by MTT assay; format: functional, cell-based; settings: WEHI231, 144 h
[44] = tested on: MCF7; assay: Cytotoxicity against human MCF7 cells assessed as cell growth inhibition incubated for 144 hrs by MTT assay; format: functional, cell-based; settings: MCF7, 144 h
[45] = tested on: Colon 26; assay: Cytotoxicity against mouse Colon 26 cells incubated for 3 days by MTT assay; format: functional, cell-based; settings: Colon 26, 72 h
[46] = tested on: L1210; assay: Cytotoxicity against mouse L1210 cells incubated for 3 days by MTT assay; format: functional, cell-based; settings: L1210, 72 h
[47] = tested on: NCI-H292; assay: Growth inhibition in human NCI-H292 cells incubated for 2 days by calcein-AM/pluronic F127 based fluorescence plate reader; format: functional; settings: NCI-H292, 48 h, time 2 day
[48] = tested on: HeLa; assay: Cytotoxicity against human HeLa cells by MTT assay; format: functional, cell-based
[49] = tested on: KB; assay: Cytotoxicity against human KB cells by MTT assay; format: functional, cell-based
[50] = tested on: K562; assay: Cytotoxicity against human K562 cells by MTT assay; format: functional, cell-based
[51] = tested on: Jurkat; assay: Cytotoxicity against human Jurkat cells incubated for 18 hrs by MTS assay; format: functional

COC[C@@H](C[C@H]1O[C@@](O)([C@H](O)[C@@H]2C[C@H](OC)[C@@H](O)CC/C=C(C)/C=C/[C@@H](O[C@@H]3O[C@@H](C)[C@H](OC)[C@@H](O)[C@@H]3O)[C@H](C)/C=C(C)/C=C(C)/C=C(\C)C(=O)O2)[C@H](C)[C@@H](O)[C@H]1C)O[C@H]1C[C@](C)(O)[C@@H](O[C@H]2C[C@@H](OC)[C@H](O)[C@@H](C)O2)[C@H](C)O1
0.011 µg/mL: IC50 [1]
< 50 nM: EC50 [2]

C/C=C/C/C(C)=C\[C@H]1C/C=C/C=C/C[C@H](C)/C=C(\C)[C@@H](OC)C/C=C/[C@@H](O[C@@H]2O[C@H](CO)[C@@H](O)[C@H](OC)[C@H]2O)CC(=O)O1
19 nM: Ki [42]
0.1 µg/mL: IC50 [41]
600 nM: GI50 [3] | GI50 [4] | GI50 [5] | GI50 [6] | GI50 [7] | GI50 [8] | GI50 [9] | GI50 [10] | GI50 [11] | GI50 [12] | GI50 [13] | GI50 [14] | GI50 [15] | GI50 [16] | GI50 [17] | GI50 [18] | GI50 [19] | GI50 [20] | GI50 [21] | GI50 [22] | GI50 [23] | GI50 [24] | GI50 [25] | GI50 [26] | GI50 [27] | GI50 [28] | GI50 [29] | GI50 [30] | GI50 [31] | GI50 [32] | GI50 [33] | GI50 [34] | GI50 [35] | GI50 [36] | GI50 [37] | GI50 [38] | GI50 [39] | GI50 [40]

COC[C@@H](C[C@H]1O[C@@](O)([C@H](O)[C@@H]2C[C@H](OC)[C@@H](O)CCC/C=C(C)\C=C\C[C@@H](O[C@H]3O[C@@H](C)[C@H](OC)[C@@H](O)[C@@H]3O)[C@H](C)/C=C(C)/C=C(C)/C=C(\C)C(=O)O2)[C@H](C)[C@@H](O)[C@H]1C)O[C@H]1C[C@](C)(O)[C@@H](O[C@H]2C[C@@H](OC)[C@H](O)[C@@H](C)O2)[C@H](C)O1
30 nM: IC50 [44]
20 nM: IC50 [43]

C/C=C(\C)[C@H](O)[C@H](C)/C=C(C)/C=C/C/C(C)=C/Cc1nc(OC)c(OC)c(OC2O[C@H](C)[C@H](O)[C@H](O)[C@@H]2O)c1C (stereo partly specified)
7.91 µg/mL: IC50 [46]
0.81 µg/mL: IC50 [45]

COC[C@@H](C[C@H]1O[C@@](O)([C@H](O)[C@@H]2C[C@H](OC)CCC/C=C(C)/C=C/[C@@H](O[C@@H]3O[C@@H](C)[C@H](OC)[C@@H](O)[C@@H]3O)[C@H](C)/C=C(C)/C=C(C)/C=C(\C)C(=O)O2)[C@H](C)[C@@H](O)[C@H]1C)O[C@H]1C[C@](C)(O)[C@@H](O[C@H]2C[C@@H](OC)[C@H](O)[C@@H](C)O2)[C@H](C)O1
7 nM: GI50 [47]

C/C=C(\C)[C@H](O)[C@H](C)/C=C(C)/C=C/C/C(C)=C/Cc1nc(OC)c(OC)c(OC2O[C@@H](C)[C@H](O)[C@@H](O)[C@H]2O)c1C (stereo partly specified)
2.8 µg/mL: IC50 [48]
3.8 µg/mL: IC50 [49]
4.6 µg/mL: IC50 [50]

CCCCCCCCCCCCn1cc(CO[C@@H]2OC[C@@H](O)[C@H](O)[C@H]2O)nn1
26000 nM: CC50 [51]
